Measured values published in ChEMBL document CHEMBL5653615 (J Biol Chem, 2013).
One block for each compound: values may come before it.

How the values were obtained:
[1] = molecular target: T1, Serine/threonine-protein kinase ULK1 (Homo sapiens) (UniProt O75385); test: Inhibition of human ULK1 at 18.6 nM by HotSpot assay relative to control
T1 sequence (whole entry): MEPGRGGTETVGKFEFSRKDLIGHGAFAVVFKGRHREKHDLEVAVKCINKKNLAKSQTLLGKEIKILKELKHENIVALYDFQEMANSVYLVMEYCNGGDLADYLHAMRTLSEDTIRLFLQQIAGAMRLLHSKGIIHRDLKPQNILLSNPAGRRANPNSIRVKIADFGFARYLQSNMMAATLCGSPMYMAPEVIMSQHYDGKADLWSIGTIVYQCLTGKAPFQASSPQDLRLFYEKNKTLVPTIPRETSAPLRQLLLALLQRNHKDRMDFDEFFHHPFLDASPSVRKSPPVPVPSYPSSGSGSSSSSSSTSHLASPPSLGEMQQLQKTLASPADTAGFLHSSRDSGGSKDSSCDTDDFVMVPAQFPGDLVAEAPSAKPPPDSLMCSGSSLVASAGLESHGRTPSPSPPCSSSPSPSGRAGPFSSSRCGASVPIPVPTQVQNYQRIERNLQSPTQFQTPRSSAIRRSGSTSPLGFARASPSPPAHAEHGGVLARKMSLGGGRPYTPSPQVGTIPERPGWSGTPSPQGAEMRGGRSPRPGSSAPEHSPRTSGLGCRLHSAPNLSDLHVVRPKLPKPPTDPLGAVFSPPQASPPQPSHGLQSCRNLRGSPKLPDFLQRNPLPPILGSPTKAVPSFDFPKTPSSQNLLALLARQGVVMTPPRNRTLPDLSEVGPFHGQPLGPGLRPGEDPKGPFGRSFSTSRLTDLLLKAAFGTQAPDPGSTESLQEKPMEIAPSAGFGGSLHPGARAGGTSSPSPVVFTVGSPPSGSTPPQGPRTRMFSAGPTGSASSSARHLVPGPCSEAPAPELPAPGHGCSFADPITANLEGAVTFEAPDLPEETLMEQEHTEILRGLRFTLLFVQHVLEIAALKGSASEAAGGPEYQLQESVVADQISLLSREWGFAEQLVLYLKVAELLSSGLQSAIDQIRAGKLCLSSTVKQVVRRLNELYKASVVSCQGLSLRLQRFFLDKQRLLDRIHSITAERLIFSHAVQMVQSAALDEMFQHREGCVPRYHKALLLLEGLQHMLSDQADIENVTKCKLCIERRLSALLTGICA

[2] = molecular target: SRSF protein kinase 1 (Homo sapiens) (UniProt Q96SB4); test: Inhibition of human SRPK1 at 18.6 nM by HotSpot assay relative to control
Sequence of SRSF protein kinase 1 (Homo sapiens) (Q96SB4 whole entry): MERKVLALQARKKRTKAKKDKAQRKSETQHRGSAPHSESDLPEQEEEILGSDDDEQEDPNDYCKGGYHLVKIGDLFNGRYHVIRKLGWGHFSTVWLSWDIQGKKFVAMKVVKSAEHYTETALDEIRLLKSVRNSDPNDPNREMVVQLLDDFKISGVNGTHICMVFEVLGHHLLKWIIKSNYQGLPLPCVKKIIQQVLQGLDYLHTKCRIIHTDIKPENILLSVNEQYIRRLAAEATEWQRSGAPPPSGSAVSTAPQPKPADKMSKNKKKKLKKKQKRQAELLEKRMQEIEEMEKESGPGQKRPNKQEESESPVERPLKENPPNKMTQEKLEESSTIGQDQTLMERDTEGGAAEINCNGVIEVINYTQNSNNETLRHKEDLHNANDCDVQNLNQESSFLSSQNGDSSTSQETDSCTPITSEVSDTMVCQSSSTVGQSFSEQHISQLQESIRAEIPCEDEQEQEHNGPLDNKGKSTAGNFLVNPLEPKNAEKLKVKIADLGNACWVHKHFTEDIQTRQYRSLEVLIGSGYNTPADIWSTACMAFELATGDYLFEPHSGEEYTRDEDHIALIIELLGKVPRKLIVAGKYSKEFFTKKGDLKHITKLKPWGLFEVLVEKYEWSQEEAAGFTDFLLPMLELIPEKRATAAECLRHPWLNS

[3] = molecular target: Ephrin type-A receptor 2 (Homo sapiens) (UniProt P29317); test: Inhibition of human EPHA2 at 18.6 nM by HotSpot assay relative to control
Sequence of Ephrin type-A receptor 2 (Homo sapiens) (P29317 whole entry): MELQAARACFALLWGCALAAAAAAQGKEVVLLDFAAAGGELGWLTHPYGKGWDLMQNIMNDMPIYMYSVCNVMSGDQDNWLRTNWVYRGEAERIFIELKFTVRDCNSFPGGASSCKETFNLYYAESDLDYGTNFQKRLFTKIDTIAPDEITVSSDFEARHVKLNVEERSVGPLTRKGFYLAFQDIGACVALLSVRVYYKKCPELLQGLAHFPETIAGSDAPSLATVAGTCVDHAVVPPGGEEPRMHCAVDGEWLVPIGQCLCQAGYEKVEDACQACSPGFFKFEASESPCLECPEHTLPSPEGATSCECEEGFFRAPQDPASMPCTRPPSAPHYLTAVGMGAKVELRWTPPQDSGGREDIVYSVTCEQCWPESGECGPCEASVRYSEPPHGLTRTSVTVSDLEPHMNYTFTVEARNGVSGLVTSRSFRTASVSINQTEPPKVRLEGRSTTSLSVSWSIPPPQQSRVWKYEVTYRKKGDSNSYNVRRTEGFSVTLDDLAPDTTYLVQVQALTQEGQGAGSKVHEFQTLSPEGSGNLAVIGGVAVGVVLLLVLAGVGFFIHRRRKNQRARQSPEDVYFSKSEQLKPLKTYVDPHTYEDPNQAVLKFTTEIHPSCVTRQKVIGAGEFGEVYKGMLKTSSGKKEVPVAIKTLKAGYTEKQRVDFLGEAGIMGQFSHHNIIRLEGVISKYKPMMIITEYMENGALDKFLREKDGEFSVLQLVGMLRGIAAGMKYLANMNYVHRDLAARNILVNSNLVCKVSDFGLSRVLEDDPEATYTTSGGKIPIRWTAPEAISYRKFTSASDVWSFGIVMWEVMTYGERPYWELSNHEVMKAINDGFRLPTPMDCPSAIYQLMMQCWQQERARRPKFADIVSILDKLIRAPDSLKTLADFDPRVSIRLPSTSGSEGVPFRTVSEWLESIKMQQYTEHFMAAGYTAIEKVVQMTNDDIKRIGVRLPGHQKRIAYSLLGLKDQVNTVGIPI

[4] = molecular target: cAMP-dependent protein kinase (PKA) (Homo sapiens) (UniProt P22694+P17612+P22612); test: Inhibition of human PKA at 18.6 nM by HotSpot assay relative to control; type: protein assay
[5] = molecular target: Tyrosine-protein kinase Srms (Homo sapiens) (UniProt Q9H3Y6); test: Inhibition of human SRMS at 18.6 nM by HotSpot assay relative to control
Sequence of Tyrosine-protein kinase Srms (Homo sapiens) (Q9H3Y6 whole entry): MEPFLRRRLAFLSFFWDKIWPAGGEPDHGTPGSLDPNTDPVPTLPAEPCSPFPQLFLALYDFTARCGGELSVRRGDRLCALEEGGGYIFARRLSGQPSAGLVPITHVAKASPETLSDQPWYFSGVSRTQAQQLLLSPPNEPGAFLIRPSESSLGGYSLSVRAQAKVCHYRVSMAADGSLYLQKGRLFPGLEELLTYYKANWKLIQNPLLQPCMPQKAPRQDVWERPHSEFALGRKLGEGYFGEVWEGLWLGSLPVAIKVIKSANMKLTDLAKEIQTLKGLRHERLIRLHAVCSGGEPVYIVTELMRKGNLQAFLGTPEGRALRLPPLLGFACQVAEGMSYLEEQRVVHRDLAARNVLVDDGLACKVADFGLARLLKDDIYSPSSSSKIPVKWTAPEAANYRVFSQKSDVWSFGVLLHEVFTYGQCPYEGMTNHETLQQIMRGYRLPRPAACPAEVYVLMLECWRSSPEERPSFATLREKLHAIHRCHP

[6] = molecular target: Serine/threonine-protein kinase pim-2 (Homo sapiens) (UniProt Q9P1W9); test: Inhibition of human PIM2 at 500 nM by HotSpot assay relative to control
Sequence of Serine/threonine-protein kinase pim-2 (Homo sapiens) (Q9P1W9 whole entry, looked up): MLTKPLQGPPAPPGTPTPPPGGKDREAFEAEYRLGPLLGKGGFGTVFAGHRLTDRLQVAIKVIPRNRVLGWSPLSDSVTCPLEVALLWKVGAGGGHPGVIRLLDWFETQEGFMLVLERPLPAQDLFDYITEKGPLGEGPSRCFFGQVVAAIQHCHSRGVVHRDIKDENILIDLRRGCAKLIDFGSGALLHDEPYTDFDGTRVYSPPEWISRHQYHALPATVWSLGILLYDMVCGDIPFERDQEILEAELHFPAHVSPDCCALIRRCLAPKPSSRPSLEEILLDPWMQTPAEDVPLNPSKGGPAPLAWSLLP

[7] = molecular target: Maternal embryonic leucine zipper kinase (Homo sapiens) (UniProt Q14680); test: Inhibition of human MELK at 1.82 nM by HotSpot assay relative to control
Sequence of Maternal embryonic leucine zipper kinase (Homo sapiens) (Q14680 whole entry, looked up): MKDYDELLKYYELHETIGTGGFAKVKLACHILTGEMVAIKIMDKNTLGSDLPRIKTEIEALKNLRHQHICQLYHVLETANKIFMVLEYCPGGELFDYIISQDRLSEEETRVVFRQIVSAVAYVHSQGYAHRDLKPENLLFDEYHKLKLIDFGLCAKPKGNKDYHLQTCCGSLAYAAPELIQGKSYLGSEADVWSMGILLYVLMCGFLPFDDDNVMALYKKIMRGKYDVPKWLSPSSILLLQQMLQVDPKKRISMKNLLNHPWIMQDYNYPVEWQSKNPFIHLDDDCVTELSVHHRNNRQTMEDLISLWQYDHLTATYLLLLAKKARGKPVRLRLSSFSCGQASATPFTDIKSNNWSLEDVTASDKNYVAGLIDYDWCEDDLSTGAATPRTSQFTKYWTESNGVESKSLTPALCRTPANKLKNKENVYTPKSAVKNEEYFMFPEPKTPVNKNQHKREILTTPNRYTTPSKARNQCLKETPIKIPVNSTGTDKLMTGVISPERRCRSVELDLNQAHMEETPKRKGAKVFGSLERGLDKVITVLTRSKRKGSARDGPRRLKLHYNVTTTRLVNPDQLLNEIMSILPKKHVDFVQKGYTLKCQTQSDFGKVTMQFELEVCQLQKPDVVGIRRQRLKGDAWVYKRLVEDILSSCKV

[8] = molecular target: Dual specificity tyrosine-phosphorylation-regulated kinase 1A (Homo sapiens) (UniProt Q13627); test: Inhibition of human DYRK1 at 1.82 nM by HotSpot assay relative to control
[9] = molecular target: T2, Inhibitor of nuclear factor kappa-B kinase subunit epsilon (Homo sapiens) (UniProt Q14164); conditions: dose 1.82 nM
T2 sequence (whole entry): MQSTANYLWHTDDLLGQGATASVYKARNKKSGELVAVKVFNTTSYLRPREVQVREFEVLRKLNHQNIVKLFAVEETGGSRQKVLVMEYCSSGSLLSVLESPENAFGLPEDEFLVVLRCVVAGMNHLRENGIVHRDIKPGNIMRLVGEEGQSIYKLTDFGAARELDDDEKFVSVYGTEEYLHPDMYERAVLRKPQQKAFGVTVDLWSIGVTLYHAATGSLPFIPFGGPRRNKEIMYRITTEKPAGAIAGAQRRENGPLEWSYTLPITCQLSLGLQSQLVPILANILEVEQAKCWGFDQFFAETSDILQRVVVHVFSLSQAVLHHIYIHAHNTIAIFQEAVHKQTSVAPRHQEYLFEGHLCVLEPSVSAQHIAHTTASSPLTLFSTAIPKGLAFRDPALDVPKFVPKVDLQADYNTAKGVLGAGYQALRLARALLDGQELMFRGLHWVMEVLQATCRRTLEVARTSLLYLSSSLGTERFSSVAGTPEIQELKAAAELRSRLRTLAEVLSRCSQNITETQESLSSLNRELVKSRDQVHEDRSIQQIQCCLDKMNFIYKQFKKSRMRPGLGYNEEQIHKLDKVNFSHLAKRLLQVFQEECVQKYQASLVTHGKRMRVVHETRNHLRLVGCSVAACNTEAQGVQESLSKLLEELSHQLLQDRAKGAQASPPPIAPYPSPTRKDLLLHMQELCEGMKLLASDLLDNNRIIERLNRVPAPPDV
Description: Inhibition of human IKKe at 1.82 nM by HotSpot assay relative to control

inhibition [1]: 2.65%
inhibition [2]: -6.12%
inhibition [3]: 2.9%
inhibition [4]: -8.62%
inhibition [5]: -0.53%
Compound: C[C@]1(O)C[C@@H](c2nc(-c3ccc4ccc(-c5ccccc5)nc4c3)c3c(N)nccn32)C1

Compound: Nc1n[nH]c2nnc(-c3c(-c4ccccc4)nn4ccccc34)cc12
inhibition [6]: 8.35%

inhibition [7]: 1.63%
inhibition [8]: -3.18%
inhibition [9]: 5.87%
Compound: C[C@@]1(C(=O)Nc2ccc(F)nc2)CCCN1c1nc(Nc2cc(C3CC3)n[nH]2)c2cccn2n1
